Assays:
PTHrP = PTHrP immunohistochemistry of skeletal metastasis (vertebrae); assay type: in vivo, male Copenhagen rats; details: 100.0 ug/kg PCK3145, day 10, vs vehicle
Protocol: For example, vertebral columns were fixed and decalcified for a period of 3 weeks. Vertebral column samples were dewaxed in xylene, and rehydrated through a graded alcohol series (100%-70%). For determining the level of expression of PTHrP by skeletal metastasis, the sections were incubated in 1% normal goat serum (Vector Laboratories Inc., Burlingame, Calif., USA) for 30 min at room temperature before treatment with the primary antibody (polyclonal antiserum against PTHrP (1-34) from rabbit) at 1: 200 dilution overnight at 4° C. Biotinylated goat anti-rabbit IgG (Vector Laboratories Inc., Burlingame, Calif., USA) was used as the secondary antibody at 1:200 for 30 min at room temperature. […]
(§1) Computer-Assisted Image Analysis. Computer-assisted image analysis was carried out to quantify PTHrP immunostaining and determination of % TV/BV in the vertebral sections. […] The threshold was set by determining the positive staining of control sections and was used to automatically analyze all recorded images of all samples that were stained in the same session under identical conditions. The area of stained regions was calculated automatically by the software in each microscopic field. Pixel counts of the immunoreaction product were calculated automatically and were given as total density of the integrated immunostaining over a given area. […]

[1] = tested on: Mat Ly Lu-PTHrP skeletal metastasis; assay: Bone histomorphometry of vertebrae (tumor volume to bone volume); assay type: in vivo, male Copenhagen rats
Protocol: Alternatively, cell pellets (10×10^3 cells) were resuspended in 100ul saline and injected using 1 ml syringes into the left ventricle of rats anaesthetised with ketamine/xylazine cocktail. […] The time after tumor cell inoculation which was required to develop hind limb paralysis (an index of spinal cord compression due to lumbar vertebrae metastasis) was determined and percentage of starting number of animals developing hind-limb paralysis was plotted. […]
as §1

Mat Ly Lu-PTHrP cells = assay: DNA fragmentation in vitro (agarose gel); assay type: cell-based, rat; details: PSP-94 10.0 ug/ml, after 72 hours of treatment
Protocol: In order to investigate the underlying molecular mechanism of action of PSP-94 in reducing tumor growth Mat Ly Lu-PTHrP cells were cultured in the presence of PSP-94 (10.0 ug/ml) or vehicle alone for different time intervals. Genomic DNA was collected from cells cultured in the presence of vehicle alone or PSP-94. Briefly, for DNA fragmentation, Mat Ly Lu-PTHRP cells were plated in 6 well plates (Falcon Plastics, Oxnard, Calif.). Cells were treated with PSP-94 (10.0 ug/ml) for up to 72 hours. DNA from treated cells incubated with PSP-94 and cells treated with vehicle alone was collected using a Phenol:Choloroform:lsoamyl alcohol solution (50:48:2). Equal amounts of DNA were subjected to gel electrophoresis on a 2% agarose gel. DNA fragmentation was visualised by UV light using a transilluminator. More particularly, results presented in FIG. 14A show Mat Ly Lu-PTHrP cells cultured in the presence of vehicle alone or PSP-94 (10.0 ug/ml) for up to […]. DNA was isolated and run in an agarose gel, as described above.

Molecule	PTHrP staining in Mat Ly Lu-PTHrP cells of the vertebral column (total density) (PTHrP)	ratio of tumor volume to bone volume (TV/BV) ([1]; 100.0 ug/kg PCK3145, day 10 post inoculation, vs vehicle)	trabecular and cortical bone destruction with compression of the spinal cord ([1]; 100.0 ug/kg/day PCK3145, day 10, vs vehicle)	DNA fragmentation (Mat Ly Lu-PTHrP cells)
E W Q T D N C E T C T C Y E T (EWQTDNCETCTCYET; PCK3145 (polypeptide 31-45))	significantly lower	significant decrease	significantly less	
PSP-94: prostate secretory protein of 94 amino acids; native human seminal plasma PSP-94 (protein) SCYFIPNEGVPGDSTRKCMDLKGNKHPINSEWQTDNCETCTCYETEISCCTLVSTPVGYDKDNCQRIFKKEDCKYIVVEKKDPKKTCSVSEWII				marked DNA fragmentation

From patent US20050026833A1, “PSP-94: use for treatment of hypercalcemia and bone metastasis” (priority 2001, published 2005)
